In US20210062263A1, “A CLINICAL […]” (priority 2016, published 2021):

Test: Reproductive organ weights (seminal vesicle, epididymis)
Format: in vivo, mice
Details: castrated males, testosterone replacement
Description: Six week-old male mice were castrated under anesthesia three weeks prior to the studies on wound healing. The testes were gently pushed through the inguinal canal into the abdominal cavity and exposed through a small (0.5 cm) ventral midline abdominal incision. Each testis was gently dissected from its epididymis and removed after ligation of the testicular vasculature. All incisions were closed using two interrupted 5/0 silk sutures (Johnson & Johnson Medical, NSW, Australia).
Implants were prepared by cutting medical grade Silastic (polydimethylsiloxane) tubing (1.5 mm inner diameter, 2.3 mm outer diameter, Aunet Pty Ltd, WA, Australia) to the desired length (1 cm long) and sealing one end with Multi-Purpose Sealant (Dow Corning RTV Sealant). After 24 hours each tube was packed with either crystalline testosterone (Sigma #T-1500) or left empty (vehicle implant). The open end was then sealed and implants were allowed to dry for at least 24 hours prior to surgical implantation. The implant size was considered to be the length of tubing containing testosterone. Prior to subcutaneous insertion, implants were sterilized in absolute ethanol for 10 minutes which also removed any androgen adhering to its external surface. […]

## C[C@]12CC[C@H]3[C@@H](CCC4=CC(=O)CC[C@@]43C)[C@@H]1CC[C@@H]2O [testosterone]
  size and weight of the epididymis: 0.05±0.02
  size and weight of the seminal vesicle: 0.42±0.02
